What was measured:
JAK3 enzyme [1] = target: T1, JAK3 enzyme (Homo sapiens, UniProt P52333); experiment: JAK Caliper Enzyme Assay at 4 μM ATP; format: biochemical
T1 sequence (P52333 1-1124): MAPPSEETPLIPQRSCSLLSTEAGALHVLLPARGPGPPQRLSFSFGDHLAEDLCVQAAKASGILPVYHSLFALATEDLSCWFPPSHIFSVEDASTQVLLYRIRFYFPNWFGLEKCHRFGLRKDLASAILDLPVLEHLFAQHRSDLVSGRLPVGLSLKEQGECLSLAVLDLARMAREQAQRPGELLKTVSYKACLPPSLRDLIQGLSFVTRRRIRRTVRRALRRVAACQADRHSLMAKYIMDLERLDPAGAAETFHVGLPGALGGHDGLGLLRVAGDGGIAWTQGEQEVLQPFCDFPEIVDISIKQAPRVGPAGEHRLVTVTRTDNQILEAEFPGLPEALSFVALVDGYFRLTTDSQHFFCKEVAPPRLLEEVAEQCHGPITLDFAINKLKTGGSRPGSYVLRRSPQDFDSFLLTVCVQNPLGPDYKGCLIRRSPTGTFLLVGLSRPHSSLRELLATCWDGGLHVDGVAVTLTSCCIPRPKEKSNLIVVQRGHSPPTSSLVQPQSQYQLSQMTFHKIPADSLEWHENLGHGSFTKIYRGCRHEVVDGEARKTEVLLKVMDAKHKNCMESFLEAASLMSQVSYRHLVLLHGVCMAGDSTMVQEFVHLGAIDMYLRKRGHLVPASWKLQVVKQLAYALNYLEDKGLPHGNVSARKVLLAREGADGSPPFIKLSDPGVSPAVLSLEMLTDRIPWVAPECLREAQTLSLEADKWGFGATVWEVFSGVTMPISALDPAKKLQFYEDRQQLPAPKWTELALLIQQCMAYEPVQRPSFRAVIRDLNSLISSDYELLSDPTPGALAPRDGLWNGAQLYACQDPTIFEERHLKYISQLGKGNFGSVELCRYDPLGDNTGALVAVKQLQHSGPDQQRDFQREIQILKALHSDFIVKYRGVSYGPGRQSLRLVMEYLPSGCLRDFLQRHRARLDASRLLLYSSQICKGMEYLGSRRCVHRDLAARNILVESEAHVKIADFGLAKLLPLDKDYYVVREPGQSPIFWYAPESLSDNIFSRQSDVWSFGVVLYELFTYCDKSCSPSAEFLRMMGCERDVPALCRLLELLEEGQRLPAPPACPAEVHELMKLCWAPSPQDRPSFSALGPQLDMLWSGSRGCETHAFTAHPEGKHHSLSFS
Method in brief: (§1)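 Substrate conversion was kept within 20%-30% by adjusting enzyme and incubation for every preparation; peptide phosphorylation was quantified via on-chip mobility shift.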

JAK3 enzyme [2] = target: T1, JAK3 enzyme; experiment: JAK Caliper Enzyme Assay at 1 mM ATP; format: biochemical
Method in brief: as §1

[3] = tested on: IL-15 induced P-STAT5 in human PBMC; experiment: PBMC IL-15 Induced P-STAT5; format: cell-based; conditions: human PBMC, IL-15 final 41 ng/mL; read-out: PBMC IL15_pSTAT5_IC50
Method in brief: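 Flow cytometry gated on total lymphocytes measured STAT5 staining (Alexa Fluor 647 antibody, overnight, 4 °C) in fixed, methanol-permeabilised human PBMC. Cells had received compound for 15 min at 37 °C (0.2% DMSO final), followed by 41 ng/mL final human IL-15 for 15 min.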

Compound: C=CC(=O)N1CC(CF)CC(Nc2ncnc3[nH]ccc23)C1 (mixture of isomers) [Example 102, Cis-racemic-1-[3-(fluoromethyl-5-(7H-pyrrolo[2,3-d]pyrimidin-4-ylamino)piperidin-1-yl]prop-2-en-1-one]
- IC50 (JAK3 enzyme [1]): 1.9 nM
- IC50 (JAK3 enzyme [2]): 142 nM
- IC50 [3]: 237 nM

Compound: C=CC(=O)N1CC[C@@H](Nc2cnc3[nH]cc(C(=O)NCC)c3n2)[C@@H](C)C1 (racemic) [Example 37, Cis-racemic-2-{[(3S,4R)-1-acryloyl-3-methylpiperidin-4-yl]amino}-N-ethyl-5H-pyrrolo[2,3-b]pyrazine-7-carboxamide]
- IC50 (JAK3 enzyme [1]): 0.375 nM
- IC50 (JAK3 enzyme [2]): 51 nM
- IC50 [3]: 676 nM

Compound: C=CC(=O)N1CC[C@H](Nc2cnc3[nH]cc(C(=O)NCC)c3n2)C[C@H]1C (racemic) [Example 40, Trans-racemic-2-{[(2R,4S)-1-acryloyl-2-methylpiperidin-4-yl]amino}-N-ethyl-5H-pyrrolo[2,3-b]pyrazine-7-carboxamide]
- IC50 (JAK3 enzyme [1]): 0.384 nM
- IC50 (JAK3 enzyme [2]): 24 nM
- IC50 [3]: 134 nM

Compound: C=CC(=O)N1CC[C@@H](Oc2cnc3[nH]cc(C(=O)N[C@@H](C)COC)c3n2)C[C@@H]1C (racemic) [Example 71, Trans-racemic-2-{[1-acryloyl-2-methylpiperidin-4-yl]oxy}-N-[(2S)-1-methoxypropan-2-yl]-5H-pyrrolo[2,3-b]pyrazine-7-carboxamide]
- IC50 (JAK3 enzyme [1]): 1.13 nM
- IC50 (JAK3 enzyme [2]): 54 nM
- IC50 [3]: 260 nM

Compound: C=CC(=O)N1CC[C@@H](Oc2cnc3[nH]cc(C(=O)NCC)c3n2)C[C@@H]1C (racemic) [Example 77, Trans-racemic-2-{[1-acryloyl-2-methylpiperidin-4-yl]oxy}-N-ethyl-5H-pyrrolo[2,3-b]pyrazine-7-carboxamide]
- IC50 (JAK3 enzyme [1]): 0.702 nM
- IC50 (JAK3 enzyme [2]): 115 nM
- IC50 [3]: 561 nM

Compound: C=CC(=O)N1C[C@H](Nc2ncnc3[nH]ccc23)CC[C@@H]1CNC(C)=O (racemic) [Example 88, rac-N-(((2R,5R)-5-((7H-pyrrolo[2,3-d]pyrimidin-4-yl)amino)-1-acryloylpiperidin-2-yl)methyl)acetamide]
- IC50 (JAK3 enzyme [1]): 1.5 nM
- IC50 (JAK3 enzyme [2]): 137 nM
- IC50 [3]: 3450 nM

Compound: C=CC(=O)N1C[C@@H](CC#N)C[C@@H](Nc2ncnc3[nH]ccc23)C1 (racemic) [Example 105, Cis-racemic-[1-acryloyl-5-(7H-pyrrolo[2,3-d]pyrimidin-4-ylamino)piperidin-3-yl]acetonitrile]
- IC50 (JAK3 enzyme [1]): 0.408 nM
- IC50 (JAK3 enzyme [2]): 54 nM
- IC50 [3]: 324 nM

Compound: C=CC(=O)N1CCC(Oc2cnc3[nH]cc(C(=O)NC4CCCC4)c3n2)CC1 (racemic) [Example 204, Racemic-2-[(1-acryloylpiperidin-4-yl)oxy]-N-cyclopentyl-5H-pyrrolo[2,3-b]pyrazine-7-carboxamide]
- IC50 (JAK3 enzyme [1]): 0.272 nM
- IC50 (JAK3 enzyme [2]): 49 nM
- IC50 [3]: 130 nM

Compound: C=CC(=O)N1CCC(Oc2cnc3[nH]cc(C(=O)NC(C)C4CC4)c3n2)CC1 (racemic) [Example 220, Racemic-2-[(1-acryloylpiperidin-4-yl)oxy]-N-(1-cyclopropylethyl)-5H-pyrrolo[2,3-b]pyrazine-7-carboxamide]
- IC50 (JAK3 enzyme [1]): 0.211 nM
- IC50 (JAK3 enzyme [2]): 18 nM
- IC50 [3]: 100 nM

Compound: C=CC(=O)N1CC[C@H](Nc2cnc3[nH]cc(C(=O)NCC(C)CC(F)(F)F)c3n2)[C@H](OC)C1 (mixture of isomers) [Example 328, Racemic-2-{[(3R,4S)-1-acryloyl-3-methoxypiperidin-4-yl]amino}-N-(4,4,4-trifluoro-2-methylbutyl)-5H-pyrrolo[2,3-b]pyrazine-7-carboxamide]
- IC50 (JAK3 enzyme [1]): 0.578 nM
- IC50 (JAK3 enzyme [2]): 37 nM
- IC50 [3]: 143 nM

Compound: C=CC(=O)N1CCC[C@H](Nc2cnc3[nH]cc(C(=O)NCC)c3n2)C1 (single isomer, unassigned) [Example 36]
- IC50 (JAK3 enzyme [1]): 0.875 nM
- IC50 (JAK3 enzyme [2]): 54 nM
- IC50 [3]: 176 nM

Compound: C=CC(=O)N1CC[C@@H](Nc2cnc3[nH]cc(C(=O)NCC)c3n2)[C@@H](C)C1 (single isomer, unassigned) [Example 38]
- IC50 (JAK3 enzyme [1]): 0.328 nM
- IC50 (JAK3 enzyme [2]): 30 nM
- IC50 [3]: 205 nM

Compound: C=CC(=O)N1CC[C@H](Nc2cnc3[nH]cc(C(=O)NCC)c3n2)C[C@H]1C (single isomer, unassigned) [Example 41]
- IC50 (JAK3 enzyme [1]): 0.159 nM
- IC50 (JAK3 enzyme [2]): 22 nM
- IC50 [3]: 147 nM

Compound: C=CC(=O)N1CC[C@@H](Nc2cnc3[nH]cc(C(=O)NCC)c3n2)C[C@@H]1C (single isomer, unassigned) [Example 42]
- IC50 (JAK3 enzyme [1]): 0.4 nM
- IC50 (JAK3 enzyme [2]): 50 nM
- IC50 [3]: 357 nM

Compound: C=CC(=O)N1CC[C@@H](Nc2cnc3[nH]cc(C(=O)NCC)c3n2)[C@H](C)C1 (single isomer, unassigned) [Example 44]
- IC50 (JAK3 enzyme [1]): 0.35 nM
- IC50 (JAK3 enzyme [2]): 47 nM
- IC50 [3]: 315 nM

Compound: C=CC(=O)N1CC[C@@H](Oc2cnc3[nH]cc(C(=O)NCC)c3n2)[C@H](C)C1 (single isomer, unassigned) [Example 47]
- IC50 (JAK3 enzyme [1]): 1.18 nM
- IC50 (JAK3 enzyme [2]): 87 nM
- IC50 [3]: 363 nM

Compound: C=CC(=O)N1CC[C@@H](Oc2cnc3[nH]cc(C(=O)N[C@@H](C)COC)c3n2)C[C@@H]1C (single isomer, unassigned) [Example 73]
- IC50 (JAK3 enzyme [1]): 0.971 nM
- IC50 (JAK3 enzyme [2]): 33 nM
- IC50 [3]: 174 nM

Compound: C=CC(=O)N1CC[C@@H](Oc2cnc3[nH]cc(C(=O)NCC)c3n2)C[C@@H]1C (single isomer, unassigned) [Example 79]
- IC50 (JAK3 enzyme [1]): 0.608 nM
- IC50 (JAK3 enzyme [2]): 77 nM
- IC50 [3]: 264 nM

Compound: C=CC(=O)N1C[C@@H](CF)C[C@@H](Nc2ncnc3[nH]ccc23)C1 (single isomer, unassigned) [Example 103]
- IC50 (JAK3 enzyme [1]): 0.424 nM
- IC50 (JAK3 enzyme [2]): 38 nM
- IC50 [3]: 155 nM

Compound: C=CC(=O)N1C[C@@H](CC#N)C[C@@H](Nc2ncnc3[nH]ccc23)C1 (single isomer, unassigned) [Example 106]
- IC50 (JAK3 enzyme [1]): 0.125 nM
- IC50 (JAK3 enzyme [2]): 25 nM
- IC50 [3]: 192 nM

Compound: C=CC(=O)N1CCC(N(C)c2cnc3[nH]cc(C(=O)NC(C)C)c3n2)CC1 [Example 64, 2-[(1-acryloylpiperidin-4-yl)(methyl)amino]-N-(propan-2-yl)-5H-pyrrolo[2,3-b]pyrazine-7-carboxamide]
- IC50 (JAK3 enzyme [1]): 0.408 nM
- IC50 (JAK3 enzyme [2]): 50 nM
- IC50 [3]: 228 nM

Compound: C=CC(=O)N(C)C1CN(c2cnc3[nH]cc(C(=O)N[C@H](C)COC)c3n2)C1 [Example 86, 2-{3-[acryloyl(methyl)amino]azetidin-1-yl}-N-[(2R)-1-methoxypropan-2-yl]-5H-pyrrolo[2,3-b]pyrazine-7-carboxamide]
- IC50 (JAK3 enzyme [1]): 0.515 nM
- IC50 (JAK3 enzyme [2]): 94 nM
- IC50 [3]: 260 nM

Compound: C=CC(=O)N1C[C@H](COCCC#N)C[C@H](Nc2ncnc3[nH]ccc23)C1 [Example 101, 3-{[(3R,5S)-1-Acryloyl-5-(7H-pyrrolo[2,3-d]pyrimidin-4-ylamino)piperidin-3-yl]methoxy}propanenitrile]
- IC50 (JAK3 enzyme [1]): 0.219 nM
- IC50 (JAK3 enzyme [2]): 28 nM
- IC50 [3]: 227 nM

Compound: C=CC(=O)N1C[C@H](CN2CC[C@H](C#N)C2)C[C@H](Nc2ncnc3[nH]ccc23)C1 [Example 108, (S)-1-(((3S,5S)-5-((7H-pyrrolo[2,3-d]pyrimidin-4-yl)amino)-1-acryloylpiperidin-3-yl)methyl)pyrrolidine-3-carbonitrile]
- IC50 (JAK3 enzyme [1]): 0.769 nM
- IC50 (JAK3 enzyme [2]): 136 nM
- IC50 [3]: 3260 nM

Compound: C=CC(=O)N1CCN(c2cnc3[nH]cc(C(=O)N[C@H]4CCO[C@H]4C)c3n2)CC1(C)C [Example 166, 3-({[2-(4-acryloyl-3,3-dimethylpiperazin-1-yl)-5H-pyrrolo[2,3-b]pyrazin-7-yl]carbonyl}amino)-2,5-anhydro-1,3,4-trideoxy-L-threo-pentitol]
- IC50 (JAK3 enzyme [1]): 0.667 nM
- IC50 (JAK3 enzyme [2]): 58 nM
- IC50 [3]: 168 nM

Compound: C=CC(=O)N1CCC(Nc2cnc3[nH]cc(C(=O)NCC4CC4)c3n2)CC1 [Example 172, 2-[(1-acryloylpiperidin-4-yl)amino]-N-(cyclopropylmethyl)-5H-pyrrolo[2,3-b]pyrazine-7-carboxamide]
- IC50 (JAK3 enzyme [1]): 0.448 nM
- IC50 (JAK3 enzyme [2]): 5 nM
- IC50 [3]: 81.3 nM
